Experimental findings from patent publication US20260256868A1, “COMBINATION HERBAL MEDICINES FOR THE TREATMENT OF INFLAMMATORY BOWEL DISORDERS” (EVINATURE LTD., priority 2022, published 2026) are described below.

The series relates to cytochrome P450 1A1 (CYP1A1). Put plainly: CYP1A1 expression in colonic mucosal tissue of UC patients by RT-PCR (Example 8). To be noted: mucosal healing (Mayo sub-score 0/1) after treatment. It is filed as in vivo, human. From the text:
AhR is a ligand-activated transcription factor that ultimately acts in the nucleus in promoting transcription of various genes, including among others cytochrome P450 1A1 (CYP1A1) which is one of the most important xenobiotic-metabolizing enzymes and an important regulator of immune response in the intestine. Therefore, the inventors studied the expression of CYP1A1 in samples of colonic mucosal tissue obtained from UC patients, using RT-PCR.
Samples of colonic tissue were obtained during lower endoscopy from UC patients treated with CurQD and patients treated by other medications or placebo. Tissue specimens were immersed in liquid nitrogen. Biopsy samples were lysed and homogenized in TRI-Reagent and extracted according to the manufacturer's instructions (Life technologies, USA). Reverse transcription was performed on lug total RNA using the High Capacity RNA to cDNA kit according to the manufacturer's instructions (Applied Biosystems Foster City, CA USA) and Hs01054796_g1 assay for CYP1A1 and Hs99999905_m1 assay for GAPDH (housekeeping gene).

As to `Nc1ccc(O)c(C(=O)O)c1` [Batch 5ASA, 5-aminosalicylic acid], the “median CYP1A1 expression in patients who achieved mucosal healing” value is reported as 4.6.
